Measured values taken from PMC10141620 (Viruses, 2023).

Experiments:
[1] = tested on: NL4-3ΔEnv-NanoLuc/SARS-CoV-2 (USA-WA1/2020) pseudovirus; assay: microbe, parasite or virus in culture; type: cell-based; conditions: Pseudovirus
in vitro [2] = conditions: human
in vitro [3] = conditions: human; remark: listed apart in the source
SARS-CoV-1 Urbani = assay: microbe, parasite or virus in culture; type: cell-based; conditions: Severe acute respiratory syndrome coronavirus, Calu-3, read-out: IC50, SARS-CoV-1 Urbani
MERS-CoV, EMC/2012 = assay: microbe, parasite or virus in culture; type: cell-based; conditions: Middle East respiratory syndrome-related coronavirus, Calu-3, read-out: IC50, MERS-CoV
in vitro [4] = conditions: human; remark: listed apart in the source

| SMILES | IC50 ([1]; 293T/ACE2) | IC50 ([1]; A549-ACE2) | CC50 (in vitro [2]) | CC50 (in vitro [3]) | IC50 (SARS-CoV-1 Urbani) | IC50 (MERS-CoV, EMC/2012) | CC50 (in vitro [4]) |
| --- | --- | --- | --- | --- | --- | --- | --- |
| COc1cc(/C=c2/sc3nc4ccccc4n3c2=O)cc(I)c1OCC(=O)O [NBCoV72] | > 10 µM | > 10 µM | > 50 µM | > 50 µM | – | – | – |
| O=C(O)c1ccc(-c2ccc(/C=c3/sc4nc5ccccc5n4c3=O)o2)cc1 [NBCoV73] | > 10 µM | > 10 µM | > 50 µM | > 50 µM | – | – | – |
| O=C(O)c1ccc(Cl)c(-c2ccc(/C=c3/sc4nc5ccccc5n4c3=O)o2)c1 [NBCoV74] | > 10 µM | > 10 µM | > 50 µM | > 50 µM | – | – | – |
| O=C(O)c1ccc(-c2ccc(/C=c3/sc4nc5ccccc5n4c3=O)o2)cc1Cl [NBCoV75] | 5.2 ± 0.6 µM | 3.3 ± 0.7 µM | > 50 µM | > 50 µM | – | – | – |
| O=C(O)c1cc(C(=O)O)cc(-c2ccc(/C=c3/sc4nc5ccccc5n4c3=O)o2)c1 [NBCoV76] | > 10 µM | > 10 µM | > 50 µM | > 50 µM | – | – | – |
| COc1cc(/C=c2/sc3nc4ccccc4n3c2=O)ccc1OCc1cccc(C(=O)O)c1 [NBCoV77] | > 10 µM | > 10 µM | > 50 µM | > 50 µM | – | – | – |
| Cc1cc2nc3s/c(=C/c4ccc(-c5ccc(Cl)cc5)o4)c(=O)n3c2cc1C [NBCoV78] | > 10 µM | 8.1 ± 0.2 µM | > 50 µM | > 50 µM | – | – | – |
| Cc1ccc(-c2ccc(/C=c3/sc4nc5ccccc5n4c3=O)o2)cc1Cl [NBCoV79] | > 10 µM | > 10 µM | > 50 µM | > 50 µM | – | – | – |
| COc1cc(/C=c2/sc3nc4ccccc4n3c2=O)ccc1OCc1nnn[nH]1 [NBCoV80] | > 10 µM | > 10 µM | > 50 µM | > 50 µM | – | – | – |
| Cc1cc2nc3s/c(=C/c4ccc(-c5ccccc5C(=O)O)o4)c(=O)n3c2cc1C [NBCoV81] | 0.387 ± 0.064 µM | 0.459 ± 0.023 µM | > 50 µM | > 50 µM | – | – | – |
| Cc1cc2nc3s/c(=C\c4ccc(-c5ccc(OC(F)(F)F)cc5)o4)c(=O)n3c2cc1C [NBCoV82] | > 10 µM | > 10 µM | > 50 µM | > 50 µM | – | – | – |
| CCC(CC)COC(=O)[C@H](C)N[P@](=O)(OC[C@H]1O[C@@](C#N)(c2ccc3c(N)ncnn23)[C@H](O)[C@@H]1O)Oc1ccccc1 [Remdesivir, reference compound] | – | – | – | – | 1.08 µM | 17.8 µM | > 50 µM |
